How the values were obtained:
[1] = tested on: transgenic rice Line 26 (maize XI12 ahas2 gene); experiment: Greenhouse spray test of rice with PURSUIT imazethapyr (pre- and post-emergence); assay type: in vivo
[2] = tested on: transgenic suspension cells (T2 plant 26-4-10); experiment: In vitro growth of suspension cells on imazethapyr; assay type: cell-based, rice; details: 8-week culture
Description: (§1) Cell suspension cultures were initiated from immature embryo-derived calli from either transgenic homozygous T2 plant 26-4-10 or Nortai plants in 3SN6d2 liquid medium and cultured two to three months prior to treatment with various concentrations of imazethapyr. The suspension cells were filtered through a 40μ nylon mesh, collected, and resuspended in 3SN6d2 liquid medium 0.2 ml of the suspended cells were loaded onto a Millipore filter, then placed on top of agarose solidified medium containing 0, 0.1, 0.25, 0.5, 1.0, 2.5, 5, 10, 25, or 50 μM imazethapyr (AC263,499). Three weeks later, all cultures were transferred once to fresh media with the same concentrations of imazethapyr and grown for another 5 weeks. Fresh weight was measured at the end of an 8-week culture period.

[3] = tested on: Nortai (control) suspension cells; experiment: In vitro growth of suspension cells on imazethapyr; assay type: cell-based, rice
Description: as §1

[4] = tested on: transgenic corn hybrids BAa-4 and MAa-7; experiment: Greenhouse spray test of corn, statements of the text on both transgenic lines; assay type: in vivo; details: 4× (160 g/ha)
Source text: Grow one corn plant per pot (5×5 inch) in a 3×5 flat till three- to four-leaf stage (about 9 to 13 days depending on the weather). On the day of spraying, water the plants well and let excess water drip out. Spray plants on a belt-sprayer with the imidazolinone herbicides at desired rates. […] When temperature was too high, base water plants to prevent wilting. Closely observe the plants for the next two to three weeks. Symptoms of herbicide injury will be visible three days after spraying and susceptible plants will die within two to three weeks depending on temperature.
The plants were rated on a scale of 0-5 with 0 for dead plants and 5 for healthy plants with no or minimum injury.
Two transgenic hybrids BAa-4 and MAa-7 lines (see FIG. 5 for their pedigree), a non-transformed control line B×A (B73×A188), 8962IT (heterozygous XI12 imi-tolerant corn line), 8962 (wild type control) and 3395IR (homozygous XA17 imi-resistant corn line) (8962IT and 8962 were from ICI, now Garst Seed Company, Slater, Iowa 50244, and 3395IR was from Pioneer Hi-Bred International Inc, Iowa 50306-3453). Plants were sprayed with 4, 8, 16 or 20×PURSUIT® imazethapyr, ARSENAL® imazapyr, CADRE® imazameth or RAPTOR® imazamox. Plants were scored 0 to 5 (with 0 being dead plants, 5 being healthy plants with no injury) individually 16 days after herbicide treatments. […]

[5] = post-emergence, Rate 63 (g ai/ha)
[6] = post-emergence, Rate 125 (g ai/ha)
[7] = post-emergence, Rate 250 (g ai/ha)

CCc1cnc(C2=NC(C)(C(C)C)C(=O)N2)c(C(=O)O)c1 (stereo not drawn) [PURSUIT ®, imazethapyr]
No. panicles/plant Mean [1, 5]: 25.3 | No. tillers/plant Mean [1, 5]: 27.1 | Plant height Mean [1, 5]: 110.1 cm | Yield % 0× [1, 5]: 98 % 0× | Yield Mean [1, 5]: 206.7 g/5 plants | No. panicles/plant Mean [1, 6]: 22.8 | No. tillers/plant Mean [1, 6]: 25.6 | Plant height Mean [1, 6]: 108.1 cm | Yield % 0× [1, 6]: 98 % 0× | Yield Mean [1, 6]: 206.0 g/5 plants | No. panicles/plant Mean [1, 7]: 21.7 | No. tillers/plant Mean [1, 7]: 25.4 | Plant height Mean [1, 7]: 110.3 cm | Yield % 0× [1, 7]: 96 % 0× | Yield Mean [1, 7]: 202.7 g/5 plants | No. panicles/plant Mean ([1]; pre-emergence, 63 g/ha): 13.2 | No. tillers/plant Mean ([1]; pre-emergence, 63 g/ha): 14.3 | Plant height Mean ([1]; pre-emergence, 63 g/ha): 92.2 cm | Yield % 0× ([1]; pre-emergence, 63 g/ha): 101 % 0× | Yield Mean ([1]; pre-emergence, 63 g/ha): 155.3 g/5 plants | No. panicles/plant Mean ([1]; pre-emergence, 125 g/ha): 14.4 | No. tillers/plant Mean ([1]; pre-emergence, 125 g/ha): 15.3 | Plant height Mean ([1]; pre-emergence, 125 g/ha): 89.7 cm | Yield % 0× ([1]; pre-emergence, 125 g/ha): 111 % 0× | Yield Mean ([1]; pre-emergence, 125 g/ha): 170.0 g/5 plants | No. panicles/plant Mean ([1]; pre-emergence, 250 g/ha): 15.7 | No. tillers/plant Mean ([1]; pre-emergence, 250 g/ha): 13.3 | Plant height Mean ([1]; pre-emergence, 250 g/ha): 88.5 cm | Yield % 0× ([1]; pre-emergence, 250 g/ha): 109 % 0× | Yield Mean ([1]; pre-emergence, 250 g/ha): 167.0 g/5 plants | concentration up to which growth of transgenic suspension cells was normal [2]: up to 1.0 μm | concentration with no growth [2]: 5 μm | concentration with sharp decrease in growth [2]: 2 μm | concentrations that inhibit the growth of untransformed rice cells ([3]; in vitro): ≥ 0.1 µM | concentration at which growth of control cells was halted ([3]; lowest concentration used, 8-week culture): 0.1 μm

COCc1cnc(C2=NC(C)(C(C)C)C(=O)N2)c(C(=O)O)c1 (stereo not drawn) [RAPTOR ®, imazamox]
injury to transgenic corn plants [4]: no or slight injury

Source: US6653529B2, “Use of the maize X112 mutant ahas 2 gene and imidazolinone herbicides for selection of transgenic monocots, maize, rice and wheat plants resistant to the imidazolinone herbicides” (BASF Aktiengesellschaft, priority 2000, dated 2003)
